Data: US7091247B2, “Biphenyl compound” (Takeda Pharmaceutical Company Limited, priority 2000, dated 2006)
Structures can show the parent of a compound that is named as a salt.

Assays:
human GPR14 = molecular target: T1, human GPR14 (Homo sapiens, UniProt Q9UKP6); experiment: Inhibition of binding of [125I]-labeled human urotensin II to human GPR14-expressing CHO cell membrane fraction; details: 25° C., 3 hours, read-out: Inhibitory concentration (concentration showing 50% inhibition of human GPR14 binding activity)
T1 construct: expressed in transfected cells; host or cells: CHO dhfr- cells stably transfected with pcDNA3.1-hGPR14 (CHO/hGPR14)
T1 sequence (Q9UKP6 1-389): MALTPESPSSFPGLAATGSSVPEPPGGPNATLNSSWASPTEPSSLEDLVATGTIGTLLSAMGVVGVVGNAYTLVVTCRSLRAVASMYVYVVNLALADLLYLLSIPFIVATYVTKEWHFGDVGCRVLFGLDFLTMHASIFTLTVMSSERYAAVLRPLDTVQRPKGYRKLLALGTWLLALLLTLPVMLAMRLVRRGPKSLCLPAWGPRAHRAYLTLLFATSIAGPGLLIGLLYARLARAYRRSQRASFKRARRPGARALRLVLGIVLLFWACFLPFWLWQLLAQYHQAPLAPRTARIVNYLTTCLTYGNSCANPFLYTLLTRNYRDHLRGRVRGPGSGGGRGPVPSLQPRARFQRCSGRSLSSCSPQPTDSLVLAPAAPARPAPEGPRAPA
Method: To 1×10^8 CHO/GPR14 cells were added 10 ml of homogenate buffer (10 mM NaHCO3, 5 mM EDTA, 0.5 mM PMSF, 1 μg/ml pepstatin, 4 μg/ml E64, 20 μg/ml leupeptin), and disrupted using Polytron (12,000 rpm, 1 minute). Cell debris solution was centrifuged at 1,000 g for 15 minutes to obtain a supernatant. The supernatant was then […] (in Beckman type 30 rotor, 30,000 rpm, 1 hour), and the resultant precipitant was collected as human GPR14-expressing CHO cell fraction.
Isotope-labeled human urotensin II to be used in experiments for testing inhibition of binding was prepared as described below. 5 μg of human urotensin II (available from Peptide Institute, Inc.) was dissolved in 25 μl of 0.4 M sodium acetate (pH 5.6). […]
Human GPR14-expressing CHO cell fraction was diluted in a membrane diluting buffer (20 mM phosphate buffer (pH 7.3), 150 mM NaCl, 5 mM MgCl2, 0.1% BSA, 0.05% CHAPS, 0.5 mM PMSF, 0.1 μg/ml Pepstatin, 20 μg/ml Leupeptin, 4 μg/ml E-64) to prepare a solution of cell membrane fraction (protein concentration: 3 μg/ml) for assay. […] Next, the filter was washed three times with membrane diluting buffer (0.2 ml), added with 20 μl of Microscinti 20 (Packard), and determined for radioactivity in Topcount (Packard). Specific-binding is calculated by subtracting non-specific binding from the total binding. […]

[1] = molecular target: T2, GPR14-expressing CHO cells (Homo sapiens, UniProt Q9UKP6); experiment: Change in intracellular calcium concentration in human GPR14-expressing CHO cells (FLIPR, urotensin II-induced); assay type: cell-based; details: antagonist activity assay, 10 nM urotensin II added
T2 construct: expressed in transfected cells; host or cells: CHO dhfr- cells stably transfected with pcDNA3.1-hGPR14 (CHO/hGPR14)
T2 sequence (Q9UKP6 1-389): T1 sequence (Q9UKP6 1-389)
Method: GPR14-expressing CHO cells were inoculated on a 96-well plate at 1×10^4 cell/well, cultured for 48 hours, and then washed with 0.1 ml of HBSS containing 20 mM HEPES(pH 7.4), 1% FCS and 1% penicillin-streptomycin (hereinafter referred to as “wash buffer”). Next, 100 μl of another wash buffer containing 4 μM Fluo3, 0.04% pluronic acid and 2.5 mM probenicid (hereinafter referred to as “reaction buffer”) was added thereto for reaction at 37° C. for 1 hour. The reaction buffer was then removed and the plate was washed three times with 0.2 ml of wash buffer. Then, 90 μl of wash buffer and 10 μl of a solution of test compound in dimethylsulfoxide diluted 10 times (by volume) in membrane diluting buffer were added for agonist activity assay, while, for antagonist activity assay, furthermore 10 μl of 10 nM urotensin II was additionally added to determine change in intracellular calcium concentration in FLIPR (Japan Molecular Device).

[2] = molecular target: T3, human somatostatin receptor protein subtype 5 (SSTR5) (Homo sapiens, UniProt P35346); experiment: Inhibition of binding of [125I]-somatostatin to SSTR5-expressing CHO cell membrane fraction; details: 25° C., 60 minutes, Hill plots, read-out: IC50 (concentration at which 50% binding of [125I]-somatostatin was inhibited)
T3 construct: expressed in transfected cells; host or cells: CHO (dhfr-) cells transfected with pA-1-11-SSTR5; clone SSTR5-32-4
Method: (3) —(CH2)h1—X^1—(CH2)h2—X^2—(CH2)h3— (h1, h2 and h3 are the same or different integers 0 to 10 provided that the sum of h1, h2 and h3 is 0 to 10, and X^1 and X^2 independently represent NH, O, S, SO or SO2 provided that, when h2 is 0, at least one of X^1 and X^2 is preferably NH); etc., and these divalent groups wherein some bonds have been converted into unsaturated bonds. […]
The SSTR5-expressing CHO cell membrane fraction prepared in Example 5 was diluted with the assay buffer to prepare a solution at a concentration of 3 •g/ml and pipetted into tubes (173 •l/tube). […] After filtration, the radioactivity of [^125I]-somatostatin remaining on the glass filer was measured with a • counter.
The degree of inhibition of binding (%) by each test substance was determined according to the following equation: The degree of inhibition of binding (%)=(radioactivity when the compound was added−radioactivity when DMSO solution was added)/(radioactivity when somatostatin was added−radioactivity when DMSO solution was added)×100. […]

T3 sequence (P35346 whole entry): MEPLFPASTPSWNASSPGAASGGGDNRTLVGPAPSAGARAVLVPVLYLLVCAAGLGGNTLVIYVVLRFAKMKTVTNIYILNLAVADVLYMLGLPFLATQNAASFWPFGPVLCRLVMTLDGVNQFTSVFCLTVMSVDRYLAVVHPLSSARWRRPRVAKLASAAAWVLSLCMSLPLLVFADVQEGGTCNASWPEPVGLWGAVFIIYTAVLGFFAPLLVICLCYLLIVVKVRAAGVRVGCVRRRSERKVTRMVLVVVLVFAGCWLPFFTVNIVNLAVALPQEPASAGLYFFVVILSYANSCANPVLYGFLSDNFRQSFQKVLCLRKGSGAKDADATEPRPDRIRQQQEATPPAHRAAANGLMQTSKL

NS(=O)(=O)c1ccc(CCN(Cc2cccc(-c3cccc(C(=O)NCCN4CCCC4)c3)c2)C(=O)CCCc2ccccc2)cc1 [Example 4, 3′-{({2-[4-(Aminosulfonyl)phenyl]ethyl}[4-phenylbutanoyl]amino)methyl}-N-[2-(1-pyrrolidinyl)ethyl][1,1′-biphenyl]-3-carboxamide hydrochloride]
IC50 (human GPR14): 10 nM

NS(=O)(=O)c1ccc(CCN(Cc2cccc(-c3cccc(C(=O)NCCN4CCCC4)c3)c2)C(=O)COCc2ccccc2)cc1 [Example 6, 3′-{({2-[4-(Aminosulfonyl)phenyl]ethyl}[(benzyloxy)acetyl]amino)methyl}-N-[2-(1-pyrrolidinyl)ethyl][1,1′-biphenyl]-3-carboxamide hydrochloride]
IC50 (human GPR14): 13 nM

NCCNC(=O)c1cccc(-c2cccc(CN(CCc3ccc(S(N)(=O)=O)cc3)C(=O)/C=C/c3ccccc3)c2)c1.O=C(O)C(F)(F)F [Example 71, N-(2-Aminoethyl)-3′-({[4-(aminosulfonyl)phenethyl][(E)-3-phenyl-2-propenoyl]amino}methyl)[1,1′-biphenyl]-3-carboxamide trifluoroacetate]
Inhibition of urotensin II-induced increase in intracellular calcium concentration [1]: inhibited urotensin II-induced increase in intracellular calcium concentration

N=C(N)NCc1cccc(C(=O)N(Cc2cccc(-c3ccccc3C(=O)NCCN)c2)Cc2cccc3ccccc23)c1 [Example 325, N-(2-Aminoethyl)-3′-{[[3-({[amino(imino)methyl]amino}methyl)benzoyl](1-naphthylmethyl)amino]methyl}-1,1′-biphenyl-2-carboxamide trifluoroacetate]
IC50 [2]: 6 nM

NCCNC(=O)c1ccccc1-c1cccc(CN(Cc2cccc3ccccc23)C(=O)c2ccc(S(N)(=O)=O)cc2)c1 [Example 328, N-(2-Aminoethyl)-3′-{[[4-(aminosulfonyl)benzoyl](1-naphthylmethyl)amino]methyl}-1,1′-biphenyl-2-carboxamide trifluoroacetate]
IC50 [2]: 3 nM
